We go through seven compounds from patent publication US20160271263A1 (Novo Nordisk A/S, priority 2010, published 2016).

Structures are written as SMILES. Numbered stars: 1 amine (or outer) side, 2 acyl side, 3 side chain; on linkers, the order of the positions; unused ones are H or OH. Side chains are listed from the residue outwards. Peptide text beside a SMILES is read from it. * marks the point of attachment. C18 diacid = O=C(O)CCCCCCCCCCCCCCCCC(=O)*; γGlu = O=C(O)[C@H](CCC(=O)[*:2])N[*:1]; AEEA = NCCOCCOCC(=O)O

A word on the EC50: it is the concentration needed to bring the measured effect to its halfway point. Low values mean an effect from little substance, high ones a need for much substance.

The target in the assay is glucagon receptor (Homo sapiens, UniProt P47871). Kind of assay: cell-based.
Chain of glucagon receptor (P47871 26-477): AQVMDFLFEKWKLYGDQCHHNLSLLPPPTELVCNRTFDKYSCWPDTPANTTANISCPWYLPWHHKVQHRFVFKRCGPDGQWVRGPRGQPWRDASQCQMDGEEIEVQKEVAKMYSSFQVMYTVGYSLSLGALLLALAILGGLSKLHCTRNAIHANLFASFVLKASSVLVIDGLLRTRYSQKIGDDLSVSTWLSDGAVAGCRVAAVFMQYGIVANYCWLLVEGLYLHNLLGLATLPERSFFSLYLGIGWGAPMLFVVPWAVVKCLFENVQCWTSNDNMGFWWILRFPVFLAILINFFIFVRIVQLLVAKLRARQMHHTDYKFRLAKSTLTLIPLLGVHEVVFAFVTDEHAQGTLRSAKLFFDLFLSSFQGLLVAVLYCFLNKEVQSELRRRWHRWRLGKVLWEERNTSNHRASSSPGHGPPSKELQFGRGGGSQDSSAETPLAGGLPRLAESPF
`CC(C)C[C@H](NC(=O)[C@H](Cc1ccc(O)cc1)NC(=O)[C@H](CCCCN)NC(=O)[C@H](CO)NC(=O)[C@H](Cc1ccc(O)cc1)NC(=O)[C@H](CC(=O)O)NC(=O)[C@H](CO)NC(=O)[C@@H](NC(=O)[C@H](Cc1ccccc1)NC(=O)[C@@H](NC(=O)CNC(=O)[C@H](CCC(N)=O)NC(=O)[C@H](CO)NC(=O)[C@@H](N)Cc1c[nH]cn1)[C@@H](C)O)[C@@H](C)O)C(=O)N[C@@H](CC(=O)O)C(=O)N[C@@H](CO)C(=O)N[C@@H](CCCNC(=N)N)C(=O)N[C@@H](CCC(N)=O)C(=O)N[C@@H](C)C(=O)N[C@@H](CCC(N)=O)C(=O)N[C@@H](CCC(=O)O)C(=O)N[C@@H](Cc1ccccc1)C(=O)N[C@H](C(=O)N[C@@H](CCCCNC(=O)COCCOCCNC(=O)COCCOCCNC(=O)CC[C@H](NC(=O)CCCCCCCCCCCCCCCCC(=O)O)C(=O)O)C(=O)N[C@@H](Cc1c[nH]c2ccccc12)C(=O)N[C@@H](CC(C)C)C(=O)N[C@@H](CC(C)C)C(=O)N[C@@H](CC(N)=O)C(=O)N[C@H](C(=O)O)[C@@H](C)O)C(C)C` [Example 49, N^ε24-([2-[2-[2-[[2-[2-[2-[[(4S)-5-hydroxy-4-[(18-hydroxy-18-oxooctadecanoyl)amino]-5-oxopentanoyl]amino]ethoxy]ethoxy]acetyl]amino]ethoxy]ethoxy]acetyl]) [Gln^18,Glu^21,Lys^24,Leu^27] Glucagon] (H-HSQGTFTSDYSKYLDSRQAQEFVK([AEEA-AEEA-γGlu-C18 diacid])WLLNT-OH; N-terminus and C-terminus assumed): the EC50 is 0.15 nM. Take `CC(C)C[C@H](NC(=O)[C@H](Cc1ccc(O)cc1)NC(=O)[C@H](CCCCN)NC(=O)[C@H](CO)NC(=O)[C@H](Cc1ccc(O)cc1)NC(=O)[C@H](CC(=O)O)NC(=O)[C@H](CO)NC(=O)[C@@H](NC(=O)[C@H](Cc1ccccc1)NC(=O)[C@@H](NC(=O)CNC(=O)[C@H](CCC(N)=O)NC(=O)[C@H](CO)NC(=O)[C@@H](N)Cc1c[nH]cn1)[C@@H](C)O)[C@@H](C)O)C(=O)N[C@@H](CC(=O)O)C(=O)N[C@@H](CO)C(=O)N[C@@H](CCCNC(=N)N)C(=O)N[C@@H](CCCNC(=N)N)C(=O)N[C@@H](C)C(=O)N[C@@H](CCC(N)=O)C(=O)N[C@@H](CC(=O)O)C(=O)N[C@@H](Cc1ccccc1)C(=O)N[C@H](C(=O)N[C@@H](CCCCNC(=O)COCCOCCNC(=O)COCCOCCNC(=O)CC[C@H](NC(=O)CCCCCCCCCCCCCCCCC(=O)O)C(=O)O)C(=O)N[C@@H](Cc1c[nH]cn1)C(=O)N[C@@H](CC(C)C)C(=O)N[C@@H](CC(C)C)C(=O)N[C@@H](CC(N)=O)C(=O)N[C@H](C(=O)O)[C@@H](C)O)C(C)C` [Example 50, N^ε24-([2-[2-[2-[[2-[2-[2-[[(4S)-5-hydroxy-4-[(18-hydroxy-18-oxooctadecanoyl)amino]-5-oxopentanoyl]amino]ethoxy]ethoxy]acetyl]amino]ethoxy]ethoxy]acetyl]) [Lys^24,His^25,Leu^27] Glucagon]: a half-maximal effect (EC50) was put at 0.194 nM. The value for `CC(C)C[C@H](NC(=O)[C@H](Cc1ccc(O)cc1)NC(=O)[C@H](CCCCN)NC(=O)[C@H](CO)NC(=O)[C@H](Cc1ccc(O)cc1)NC(=O)[C@H](CC(=O)O)NC(=O)[C@H](CO)NC(=O)[C@@H](NC(=O)[C@H](Cc1ccccc1)NC(=O)[C@@H](NC(=O)CNC(=O)[C@H](CCC(N)=O)NC(=O)[C@H](CO)NC(=O)[C@@H](N)Cc1c[nH]cn1)[C@@H](C)O)[C@@H](C)O)C(=O)N[C@@H](CC(=O)O)C(=O)N[C@@H](CO)C(=O)N[C@@H](CCCNC(=N)N)C(=O)N[C@@H](CCCNC(=N)N)C(=O)N[C@@H](C)C(=O)N[C@@H](CCC(N)=O)C(=O)N[C@@H](CC(=O)O)C(=O)N[C@@H](Cc1ccccc1)C(=O)N[C@H](C(=O)N[C@@H](CCC(N)=O)C(=O)N[C@@H](Cc1c[nH]c2ccccc12)C(=O)N[C@@H](CC(C)C)C(=O)N[C@@H](CC(C)C)C(=O)N[C@@H](CCCCNC(=O)CC[C@H](NC(=O)CC[C@H](NC(=O)COCCOCCNC(=O)COCCOCCNC(=O)CC[C@H](NC(=O)CCCCCCCCCCCCCCCCC(=O)O)C(=O)O)C(=O)O)C(=O)O)C(=O)N[C@H](C(=O)O)[C@@H](C)O)C(C)C` [Example 52, N^ε28-([(4S)-5-hydroxy-4-[[(4S)-5-hydroxy-4-[[2-[2-[2-[[2-[2-[2-[[(4S)-5-hydroxy-4-[(18-hydroxy-18-oxooctadecanoyl)amino]-5-oxopentanoyl]amino]ethoxy]ethoxy]acetyl]amino]ethoxy]ethoxy]acetyl]amino]-5-oxopentanoyl]amino]-5-oxopentanoyl]) [Leu^27,Lys^28] Glucagon] was 0.055 nM.

For `CC(C)C[C@H](NC(=O)[C@H](CC(C)C)NC(=O)[C@H](Cc1c[nH]c2ccccc12)NC(=O)[C@H](CCC(N)=O)NC(=O)[C@@H](NC(=O)[C@H](Cc1ccccc1)NC(=O)[C@H](CC(=O)O)NC(=O)[C@H](CCC(N)=O)NC(=O)[C@H](C)NC(=O)[C@H](CCCNC(=N)N)NC(=O)[C@H](CCCNC(=N)N)NC(=O)[C@H](CO)NC(=O)[C@H](CC(=O)O)NC(=O)[C@H](CC(C)C)NC(=O)[C@H](Cc1ccc(O)cc1)NC(=O)[C@H](CCCCN)NC(=O)[C@H](CO)NC(=O)[C@H](Cc1ccc(O)cc1)NC(=O)[C@H](CC(=O)O)NC(=O)[C@H](CO)NC(=O)[C@@H](NC(=O)[C@H](Cc1ccccc1)NC(=O)[C@@H](NC(=O)CNC(=O)[C@H](CCC(N)=O)NC(=O)[C@H](CO)NC(=O)[C@@H](N)Cc1c[nH]cn1)[C@@H](C)O)[C@@H](C)O)C(C)C)C(=O)N[C@@H](CC(N)=O)C(=O)N[C@@H](CCCCNC(=O)CC[C@H](NC(=O)CC[C@H](NC(=O)COCCOCCNC(=O)COCCOCCNC(=O)CC[C@H](NC(=O)CCCCCCCCCCCCCCCCC(=O)O)C(=O)O)C(=O)O)C(=O)O)C(=O)O` [Example 53, N^ε29-([(4S)-5-hydroxy-4-[[(4S)-5-hydroxy-4-[[2-[2-[2-[[2-[2-[2-[[(4S)-5-hydroxy-4-[(18-hydroxy-18-oxooctadecanoyl)amino]-5-oxopentanoyl]amino]ethoxy]ethoxy]acetyl]amino]ethoxy]ethoxy]acetyl]amino]-5-oxopentanoyl]amino]-5-oxopentanyl]) [Leu^27,Lys^29] Glucagon], the response was half-maximal at 0.095 nM (EC50). With `CC(C)C[C@H](NC(=O)[C@H](Cc1ccc(O)cc1)NC(=O)[C@H](CCCCN)NC(=O)[C@H](CO)NC(=O)[C@H](Cc1ccc(O)cc1)NC(=O)[C@H](CC(=O)O)NC(=O)[C@H](CO)NC(=O)[C@@H](NC(=O)[C@H](Cc1ccccc1)NC(=O)[C@@H](NC(=O)CNC(=O)[C@H](CCC(N)=O)NC(=O)[C@H](CO)NC(=O)[C@@H](N)Cc1c[nH]cn1)[C@@H](C)O)[C@@H](C)O)C(=O)N[C@@H](CC(=O)O)C(=O)N[C@@H](CO)C(=O)N[C@@H](CCCCN)C(=O)N[C@@H](CCCCN)C(=O)N[C@@H](C)C(=O)N[C@@H](CCC(N)=O)C(=O)N[C@@H](CCC(=O)O)C(=O)N[C@@H](Cc1ccccc1)C(=O)N[C@H](C(=O)N[C@@H](CCCCNC(=O)COCCOCCNC(=O)COCCOCCNC(=O)CC[C@H](NC(=O)CCCCCCCCCCCCCCCCC(=O)O)C(=O)O)C(=O)N[C@@H](Cc1c[nH]c2ccccc12)C(=O)N[C@@H](CC(C)C)C(=O)N[C@@H](CC(C)C)C(=O)N[C@@H](CO)C(=O)N[C@H](C(=O)O)[C@@H](C)O)C(C)C` [Example 55, N^ε24-([2-[2-[2-[[2-[2-[2-[[(4S)-5-hydroxy-4-[(18-hydroxy-18-oxooctadecanoyl)amino]-5-oxopentanoyl]amino]ethoxy]ethoxy]acetyl]amino]ethoxy]ethoxy]acetyl]) [Lys^17,Lys^18,Glu^21,Lys^24,Leu^27, Ser^28] Glucagon] (H-HSQGTFTSDYSKYLDSKKAQEFVK([AEEA-AEEA-γGlu-C18 diacid])WLLST-OH; N-terminus and C-terminus assumed), the EC50 is 0.009 nM. Consider `CC(C)C[C@H](NC(=O)[C@H](Cc1ccc(O)cc1)NC(=O)[C@H](CCCCN)NC(=O)[C@H](CO)NC(=O)[C@H](Cc1ccc(O)cc1)NC(=O)[C@H](CC(=O)O)NC(=O)[C@H](CO)NC(=O)[C@@H](NC(=O)[C@H](Cc1ccccc1)NC(=O)[C@@H](NC(=O)CNC(=O)[C@H](CCC(N)=O)NC(=O)[C@H](CO)NC(=O)[C@@H](N)Cc1c[nH]cn1)[C@@H](C)O)[C@@H](C)O)C(=O)N[C@@H](CC(=O)O)C(=O)N[C@@H](CO)C(=O)N[C@@H](CCCNC(=N)N)C(=O)N[C@@H](CCCNC(=N)N)C(=O)N[C@@H](C)C(=O)N[C@@H](CCC(N)=O)C(=O)N[C@@H](CC(=O)O)C(=O)N[C@@H](Cc1ccccc1)C(=O)N[C@H](C(=O)N[C@@H](CCCCNC(=O)COCCOCCNC(=O)COCCOCCNC(=O)CC[C@H](NC(=O)CCCCCCCCCCCCCCCCC(=O)O)C(=O)O)C(=O)N[C@@H](Cc1ccc(OP(=O)(O)O)cc1)C(=O)N[C@@H](CC(C)C)C(=O)N[C@@H](CC(C)C)C(=O)N[C@@H](CC(N)=O)C(=O)N[C@H](C(=O)O)[C@@H](C)O)C(C)C` [Example 56, N^ε24-([2-[2-[2-[[2-[2-[2-[[(4S)-5-hydroxy-4-[(18-hydroxy-18-oxooctadecanoyl)amino]-5-oxopentanoyl]amino]ethoxy]ethoxy]acetyl]amino]ethoxy]ethoxy]acetyl]) [Lys^24, (p)Tyr^25,Leu^27] Glucagon], for which it took 0.171 nM to reach a half-maximal effect (EC50). Next, `CC(C)C[C@H](NC(=O)[C@H](Cc1ccc(O)cc1)NC(=O)[C@H](CCCCN)NC(=O)[C@H](CO)NC(=O)[C@H](Cc1ccc(O)cc1)NC(=O)[C@H](CC(=O)O)NC(=O)[C@H](CO)NC(=O)[C@@H](NC(=O)[C@H](Cc1ccccc1)NC(=O)[C@@H](NC(=O)CNC(=O)[C@H](CCC(N)=O)NC(=O)[C@H](CO)NC(=O)[C@@H](N)Cc1c[nH]cn1)[C@@H](C)O)[C@@H](C)O)C(=O)N[C@@H](CC(=O)O)C(=O)N[C@@H](CO)C(=O)N[C@@H](CCCNC(=N)N)C(=O)N[C@@H](CCCNC(=N)N)C(=O)N[C@@H](C)C(=O)N[C@@H](CCC(N)=O)C(=O)N[C@@H](CCC(=O)O)C(=O)N[C@@H](Cc1ccccc1)C(=O)N[C@H](C(=O)N[C@@H](CCCCNC(=O)COCCOCCNC(=O)COCCOCCNC(=O)CC[C@H](NC(=O)CCCCCCCCCCCCCCCCC(=O)O)C(=O)O)C(=O)N[C@@H](CCCNC(=N)N)C(=O)N[C@@H](CC(C)C)C(=O)N[C@@H](CC(C)C)C(=O)N[C@@H](CC(N)=O)C(=O)N[C@H](C(=O)O)[C@@H](C)O)C(C)C` [Example 58, N^ε24-([2-[2-[2-[[2-[2-[2-[[(4S)-5-hydroxy-4-[(18-hydroxy-18-oxooctadecanoyl)amino]-5-oxopentanoyl]amino]ethoxy]ethoxy]acetyl]amino]ethoxy]ethoxy]acetyl]) [Glu^21,Lys^24,Arg^25,Leu^27] Glucagon]: 0.074 nM.
